From publication PMC5339480, “Mutagenic and Cytotoxicity LQB 123 Profile: Safety and Tripanocidal Effect of a Phenyl-t-Butylnitrone Derivative” (BioMed Research International, 2017)

How the values were obtained:
[1] = test system: Salmonella typhimurium TA1535; experiment: Salmonella/microsome assay, TA1535
Description: (§1) Stationary growth cultures of histidine auxotrophic Salmonella typhimurium (2 × 10^9 cells/mL) TA97, TA98, TA100, TA102, and TA1535 strains were obtained at 37°C in lysogenic broth (LB, 10 g/L tryptone; 5 g/L yeast extract; 10 g/L NaCl) containing 8 μg/mL ampicillin and 2 μg/mL tetracycline (only for TA102). All strains used in the present work were from our laboratory collection. […] Then, the Ames test was performed according to Maron and Ames. DMSO was used as a negative control. […] All chemicals were from Sigma Co.

[2] = test system: Salmonella typhimurium TA98; experiment: Salmonella/microsome assay, TA98; format: cell-based; conditions: +S9, positive control (PC) 517 μM
From the text: (§2) DMSO was used as a negative control. […] All chemicals were from Sigma Co.

[3] = test system: Salmonella typhimurium TA97; experiment: Salmonella/microsome assay, TA97; format: cell-based; conditions: +S9, positive control (PC) 517 μM
From the text: as §2

[4] = test system: Salmonella typhimurium TA100; experiment: Salmonella/microsome assay, TA100
Description: as §1

T. cruzi = test system: T. cruzi; design: method as in PMID 20510218; conditions: treated only with PBN; cited from earlier work
Salmonella = conditions: cited from earlier work
[5] = TA1535, −S9, positive control (PC) 154 μM
[6] = TA100, −S9, positive control (PC) 769 μM

Nc1ccc2cc3ccccc3cc2c1 [2-AA, 2-aminoanthracene]
MI (mutagenicity index) ([1]; Salmonella typhimurium): 10.1
Number of revertant colonies per plate, Mean ± SD ([1]; Salmonella typhimurium): 168 ± 18^∗
MI (mutagenicity index) [2]: 16.0
Number of revertant colonies per plate, Mean ± SD [2]: 291 ± 36^∗
MI (mutagenicity index) [3]: 9.0
Number of revertant colonies per plate, Mean ± SD [3]: 1488 ± 139^∗
MI (mutagenicity index) ([4]; Salmonella typhimurium): 4.6
Number of revertant colonies per plate, Mean ± SD ([4]; Salmonella typhimurium): 1257 ± 107^∗

[N-]=[N+]=[N-].[Na+] [AS, sodium azide]
MI (mutagenicity index) [1, 5]: 47.3
Number of revertant colonies per plate, Mean ± SD [1, 5]: 615 ± 83^∗
MI (mutagenicity index) [4, 6]: 3.2
Number of revertant colonies per plate, Mean ± SD [4, 6]: 637 ± 52^∗

CC(C)(C)/[N+]([O-])=C/c1ccccc1 [PBN, alpha-phenyl-tert-butyl nitrone]
parasite persistence (T. cruzi): no decline in parasite persistence

O=C(Cn1ccnc1[N+](=O)[O-])NCc1ccccc1 [benznidazole]
dose giving the maximum mutagenic rate (Salmonella): 100 micrograms per plate
